The data set concerns soybeans. As to the kind of experiment: Field screening for metribuzin tolerance in soybeans (Example 11, 13). Conditions: soybean lines containing a heterozygous (CT) allele of NGMAX006079502. Type of data set: in vivo, Glycine max. The method, then: Field screening for metribuzin tolerance in soybeans was performed at the Monsanto Company Soybean Research Station near Mount Olive, N.C. in 2010 and 2011. Metribuzin application rate was 0.5 lbs/acre metribuzin (Sencor®, Bayer Crop Science, Research Triangle Park, N.C., U.S.A.) one day prior to planting. Rows were planted as single six foot row plots with 9 seed per foot. Multiple repetitions were grown per row. Within 24 hours after planting, the trial was irrigated with 0.5 inches of water to help incorporate and activate the herbicide. Injury ratings were taken fourteen to twenty one (14 to 21) days after planting using a 1 to 9 scale (for example, 1=no damage, 9=completely killed). After identifying the target region through the mapping population described in Example 12, a molecular marker was identified. An association study was done using a soybean molecular marker database. Over 200 commercial and breeding lines were characterized for metribuzin tolerance in field and greenhouse screening, as described in Example 11.

SMILES strings stand for the structures.

Turning to `CSc1nnc(C(C)(C)C)c(=O)n1N` [Metribuzin, 4-amino-6-(1,1-dimethylethyl)-3-(methylthio)-1,2,4-triazin-5(4H)-one], the “metribuzin phenotype in the field” value was “mixed phenotype of both tolerance and sensitivity”.

The values above are taken from patent US20150313228A1, “SYNERGISTIC HERBICIDAL COMBINATIONS AND METHODS OF USE” (priority 2012, published 2015).
